Measured values published in US12646011B2, “Methods and nutritional formulations to increase the efficacy and reduce the side effects of cancer treatment” (UNIVERSITY OF SOUTHERN CALIFORNIA, priority 2009, dated 2026).

Key:
4T1 breast cancer = details: two fasting cycles; 20 days after the last treatment
Method: Short-term starvation (STS), or fasting, was achieved by complete food withdrawal for 48-60 hours with continued access to water. […] Fasting in the glioma model was applied only once due to the unusually rapid tumor growth in the control (ad lib, no chemotherapy) group.
To establish a subcutaneous cancer mouse model, 12 week-old female BALB/c, 12-week-old female and male C57BL/6 mice, and 7-week-old Nude mice were injected with 4T1 breast cancer cells, B16 melanoma and GL26 glioma cells, and ACN human neuroblastoma cells, respectively. For metastatic mouse models of cancer, 12-week-old female BALB/c, 12-week-old female and male C57BL/6 mice were injected intravenously via lateral tail veins with 2×105 4T1, B16, GL26 cells, respectively, and 6-week-old female A/J mice were injected via lateral tail veins with 2×105 NXS2, and 1×10^6 Neuro-2a cells. […] Body weights were determined periodically and tumor size was measured using a digital vernier caliper. Tumor volume was calculated using the following equation: tumor volume (mm3)=(length×width×height)×π/6, where the length, width and height are in mm.
Animals were fasted for a total of 48-60 hours by complete deprivation of food but with free access to water. […] Body weight was measured immediately before and after fasting.

[1] = test system: breast cancer cells (4T1); test: In vitro fasting (STS) and chemotherapy, MTT survival, 4T1; assay type: cell-based, murine; details: for sensitization by serum from fasted mice: versus serum from mice fed ad lib, MTT
Method: To model fasting in vitro, cancer cells were incubated in media containing serum collected from mice either fed ad lib or fasted for 48 hours. […] Because pronounced glucose and growth factor reduction (e.g., the 75% reduction in the growth factor IGF-I) are two key extracellular responses to fasting, cells were incubated in different glucose and serum concentrations based on blood glucose measurements from normally fed and fasted mice (FIG. 31), i.e., incubation in low glucose (0.5 g/L) with low serum (1% FBS), or normal glucose (1.0 and 2.0 g/L for human and murine cell lines respectively) with normal serum (10% FBS) for 24 hours before and also during drug treatment (FIG. 32).
4T1-luc murine breast cancer cells were purchased from SibIech (Brookfield, CT). B16-fluc murine melanoma cells were provided by Noah Craft (UCLA). GL26 murine glioma, U87-MG human glioblastoma cells were provided by Thomas Chen (USC). PC3 and 22RV1 human prostate cancer cells were provided by Pinchas Cohen (UCLA). MCF-7 and […] human breast cancer cells and HeLa human cervical cancer cells were provided by Amy Lee (USC). LOVO human colon cancer cells were provided by Darryl Shibata (USC). NXS2 and Neuro-2a murine neuroblastoma, human ACN and SH-SY5Y neuroblastoma, OVCAR human ovarian carcinoma, MZ-MEL human melanoma, A431 epidermoid carcinoma cells were routinely cultured in the Laboratory of Oncology of Gaslini Institute. 4T1 cells were stably transfected with LC3-GFP, which was a kind gift from Jae Jung at USC, for autophagy studies. All cells were routinely maintained in DMEM 10% FBS at 37° C., 5% CO2. To inhibit autophagy cells were treated with 5 μM chloroquine (CQ) for 48 hours during in vitro STS. To modulate HO-1 activity, 4T1 cells were treated with 10 μM hemin (Sigma) or 20 μM zinc protoporphyrin (ZnPP; Sigma) for 24 hours prior to and 24 hours during chemotherapy treatment.
In vitro chemotherapy was performed by treating cells in medium containing chemotherapy for 24 hours. Optimum drug doses were determined for each individual cell line. For in vivo studies, DXR was injected intravenously via lateral tail veins, and CP was injected intraperitoneally.
Cellular fasting was done by glucose and/or serum restriction which was based on blood glucose measurements in fasted and normally fed mice; the lower level approximated to 0.5 g/L. and the upper level to 2.0 g/L. For human cell lines, normal glucose was considered as 1.0 g/L. Cells were washed twice with PBS before changing to fasting medium.
Cytotoxicity was measured by the ability to reduce methylthiazolyldiphenyl-tetrazolium bromide (MTT). Briefly, MTT was prepared at 5 mg/ml in PBS, diluted to a final concentration of 0.5 mg/ml for assays, and incubated for 3-4 hours at 37° C. […] Survival was presented as percentage of MTT reduction level of treated cells to control cells. Absorbance was read at 570 nm using a microplate reader SpectraMax 250 (Molecular Devices) and SoftMax Pro 3.0 software (Molecular Devices).

4T1 breast cancer cells = details: glucose 0.5 vs 2.0 g/L, 1% FBS
Method: (§3) To determine the mechanisms responsible for this STS-dependent sensitization, the effect of low glucose on DNA single and double strand breaks in cancer cells exposed to chemotherapy by the comet assay was studied.
(§4) Cells were diluted to 10^5/ml in culture medium (DMEM/F12 with 10% FBS), and treated with 50 μM DXR for 1 hour at 37° C. Cells were then washed once with ice cold PBS and subject to CometAssay (Trevigen, Inc, Gaithersburg, MD) according to the manufacturer's recommended procedure. Comet images were acquired with a Nikon Eclipse TE300 fluorescent microscope and analyzed with the Comet Score software (TriTek Corp., ver1.5). 100-300 cells were scored for each genotype/treatment group.

prostate adenocarcinoma = test: PSA level, cases 3 and 7; assay type: in vivo, human
Method: A person who was diagnosed in July of 2000 with bilateral prostate adenocarcinoma, Gleason score 7 and PSA level of 5.8 ng/ml. A prostatectomy performed in September of 2000 led to undetectable levels of PSA until January 2003 when it rose to 1.4 ng/ml. Leuprolide acetate together with bicalutamide and finasteride were prescribed. […] Different drugs including triptorelinpamoate, nilutamide, thalidomide, CP and ketoconazole were utilized to control the disease. In 2007 the patient's PSA level reached 9 ng/ml and new metastases were observed during a bone scan. […] After stopping the chemotherapy treatments, their PSA rose rapidly. DTX at 75 mg/m2 in a 3-weekly cycle was the regimen elected and once again the patient suffered significant side effects (FIG. 5). In June 2008, Chemotherapy stopped. The patient was enrolled in a phase III clinical trial with abiraterone acetate, a drug that can selectively block CYP17, a microsomal enzyme that catalyzes a series of reactions critical to nongonadal androgen biosynthesis (Derek Raghavan and Eric A. Klein J.C.O 2008). […] This time the patient opted to fast prior to chemotherapy. […] In agreement to the patient's experience, blood readouts were consistently stable and remained within normal range throughout the treatments (FIGS. 4A-G). During the last three cycles, besides fasting the patient applied testosterone (cream 1%) for five days prior to chemotherapy.
As a consequence the PSA level along with testosterone level increased dramatically.
A person who was diagnosed in July 1998 with prostate adenocarcinoma, Gleason score 8. […] In 1998, the patient received leuprolide acetate and bicalutamide for the first time. In September 1999, those drugs wore off and they were put on finasteride. […] They started the second cycle with leuprolide acetate and also received High Dose Rate (HDR) brachytherapy and external beam radiation with Intensity Modulated Radiation Therapy (IMRT). Complementary treatment with multiple drugs such as bicalutamide, triptorelinpamoate and nandrolone was applied in order to control the disease. However, their PSA level increased quickly each time the treatment was halted. […] The patient decided to fast 60-66 hours prior to and 8-24 hours followed chemotherapy (Table 3).

[2] = Self-reported side effects after chemotherapy (CTC-based survey); assay type: in vivo, human
Method: Ten cases are described in which patients diagnosed with a variety of malignancies have voluntarily fasted prior to (48-140 hours) and/or following (24-56 hours) chemotherapy. None of these 10 patients, who received an average of 4 cycles of chemotherapy in combination with fasting, reported significant side effects caused by the fasting itself other than hunger. Toxicity was graded based on the Common Toxicity Criteria (CTC) of the National Cancer Institute (NCI) and self-reported side-effects from five patients indicate that fasting may protect against fatigue, weakness, and gastrointestinal side effects.
Self-reported assessments of all 10 patients were obtained to evaluate the severity of the side effects experienced. Since many of the chemo toxic side effects are cumulative, survey data was compared, including all the combined fasting- and non-fasting associated chemotherapy side effects (FIG. 17A). Toxicity was graded based on the Common Toxicity Criteria of National Cancer Institute. Encouragingly, better self-reported health outcomes were addressed by all the patients even though chemo-fasting cycles were mostly carried out in the later portion of the therapy. Nausea, vomiting, diarrhea, abdominal cramps, and mouth sores were virtually absent from the reports of all 10 patients whenever chemo-fasting cycles were administered, whereas at least one of these symptoms was reported by 5 out of the 6 ad lib fed patients (FIG. 17A). The four patients that always fasted in combination with all the chemo-treatments reported low severity for the majority of the side effects (FIGS. 12, 13, 14, 16). Only mild weakness and hair loss were reported by multiple patients. For the 6 patients that received chemotherapy in association with both, fasting or ad lib diet, the severity of the self-reported side effects was determined by considering only the two closest cycle of chemotherapy in which the patient had fasted or not. There was a general and major reduction in the severity of many of the self-reported side effects in combination with fasting (FIG. 17B).

B16 melanoma cells [3] = test: Comet assay, B16; assay type: cell-based, murine; details: glucose 0.5 vs 2.0 g/L, 1% FBS
Method: as §3, §4

[4] = test system: 17 different cancer cells; test: STS sensitization panel of 17 cancer cell lines, MTT; assay type: cell-based; details: 0.5 g/L glucose, 1% FBS versus normal glucose, 10% FBS
Method: (§1) To model fasting in vitro, cancer cells were incubated in media containing serum collected from mice either fed ad lib or fasted for 48 hours. In agreement with results in mice, breast cancer cells (4T1) cultured in medium supplemented with serum from fasted mice were sensitized to both DXR and CP compared to the effect of incubation in serum from mice fed ad lib (FIG. 30). Because pronounced glucose and growth factor reduction (e.g., the 75% reduction in the growth factor IGF-I) are two key extracellular responses to fasting, cells were incubated in different glucose and serum concentrations based on blood glucose measurements from normally fed and fasted mice (FIG. 31), i.e., incubation in low glucose (0.5 g/L) with low serum (1% FBS), or normal glucose (1.0 and 2.0 g/L for human and murine cell lines respectively) with normal serum (10% FBS) for 24 hours before and also during drug treatment (FIG. 32). In agreement with the in vivo studies, glucose and serum restriction sensitized 15 out of 17 different cancer cells lines, including the murine melanoma (B16), glioma (GL26), and breast cancer (4T1) cells to DXR and/or CP (FIGS. 32-34). […]
(§2) Cytotoxicity was measured by the ability to reduce methylthiazolyldiphenyl-tetrazolium bromide (MTT). […] Absorbance was read at 570 nm using a microplate reader SpectraMax 250 (Molecular Devices) and SoftMax Pro 3.0 software (Molecular Devices).

B16 melanoma cells [5] = test: Metastatic mouse model of melanoma; assay type: in vivo
Description: The effect of fasting on chemotherapy was studied in metastatic models generated by intravenous injections of murine breast cancer cells (4T1), melanoma cells (B16), and 2 neuroblastoma cell lines (NXS2 and Neuro-2a) in immunocompetent mice. Fasting potentiated chemotherapy and extended the survival of all mice models of metastatic cancer (FIGS. 24-28). In the metastatic model of melanoma, mice were sacrificed early to determine the effect of STS on metastases. […] For instance, lung metastases were found in 100% vs65% of mice that received DXR under normal feeding and fasting, respectively. In addition, unlike normally fed mice, metastases were not detected in the liver or spleen of fasted mice (FIG. 25).
Body weight was measured immediately before and after fasting.

[6] = test system: murine neuroblastoma (NXS2); test: Metastatic mouse model of neuroblastoma NXS2, survival; assay type: in vivo; details: 16 mg/Kg
GL26 glioma cells = test: Comet assay, GL26; assay type: cell-based, murine; details: glucose 0.5 vs 2.0 g/L, 1% FBS
Method: as §3, §4

melanoma (B16) cells = test: In vitro fasting (STS) and chemotherapy, MTT survival, B16; assay type: cell-based, murine; details: rhIGF-I; glucose 0.5 vs 2.0 g/L, 1% FBS; DXR 16 μM
Method: as §1, with “32).” for “32). In agreement with the in vivo studies, glucose and serum restriction sensitized 15 out of 17 different cancer cells lines, including the murine melanoma (B16), glioma (GL26), and breast cancer (4T1) cells to DXR and/or CP (FIGS. 32-34).”
In vitro chemotherapy was performed by treating cells in medium containing chemotherapy for 24 hours. Optimum drug doses were determined for each individual cell line. […]
as §2

[7] = case 7, fasting 60-66 h prior, 8-24 h after

## O=P1(N(CCCl)CCCl)NCCCO1 (stereo not shown) [CP, cyclophosphamide]
4T1 breast cancer
  tumor size relative to CP treatment alone group: less than half
[1]
  sensitization by serum from fasted mice: sensitized
4T1 breast cancer cells
  DNA damage when combined with STS: synergistically increased DNA damage

## CC(=O)O[C@@]12CO[C@@H]1C[C@H](O)[C@@]1(C)C(=O)[C@H](O)C3=C(C)[C@@H](OC(=O)[C@H](O)[C@@H](NC(=O)OC(C)(C)C)c4ccccc4)C[C@@](O)([C@@H](OC(=O)c4ccccc4)[C@H]21)C3(C)C [DTX, docetaxel]
Prostate adenocarcinoma; case 3, 25 mg/m2 weekly, no fasting
  PSA level: 40.6 ng/mL
Prostate adenocarcinoma; case 3, reduced from 34.2, testosterone cream 1% applied before chemotherapy
  PSA after 3 cycles of chemotherapy with fasting: 6.43 ng/mL
Prostate adenocarcinoma; case 3, upon restarting chemo-fasting treatments, 75 mg/m2
  PSA level: dropped immediately
Prostate adenocarcinoma; [7]
  PSA levels throughout the cycles: consistent decreasing trend
[2]; case 3, 75 mg/m2 with fasting, versus previous ad-lib cycles
  self-reported side effects: considerably lower side effects
[2]; case 3, chemotherapy cycles without fasting
  self-reported side effects: fatigue, weakness, metallic taste, dizziness, forgetfulness, short-term memory impairment and peripheral neuropathy
[2]; [7]
  self-reported side effects: almost non-existent except for mild vibratory sensation in their feet

## COc1cccc2c1C(=O)c1c(O)c3c(c(O)c1C2=O)C[C@@](O)(C(=O)CO)C[C@@H]3O[C@H]1C[C@H](N)[C@H](O)[C@H](C)O1 [DXR, doxorubicin]
B16 melanoma cells [3]
  DNA damage when combined with STS: synergistically increased DNA damage
[4]
  cancer cell lines sensitized by STS: 15 out of 17
B16 melanoma cells [5]; fasted mice
  metastases in the liver or spleen: not detected
B16 melanoma cells [5]; normal feeding
  mice with lung metastases: 100%
[6]; 2 cycles of fasting
  Long-term survival (over 180 days): 42%
[6]; ad lib group
  mortality: 100%
GL26 glioma cells
  DNA damage when combined with STS: synergistically increased DNA damage
GL26 glioma cells; listed as doxorubicin
  DNA damage when combined with STS: additive
[1]
  sensitization by serum from fasted mice: sensitized

## C=CC1=C(C)c2cc3[n-]c(cc4nc(cc5[n-]c(cc1n2)c(C)c5C=C)C(C)=C4CCC(=O)O)c(CCC(=O)O)c3C.[Zn+2] [ZnPP, zinc protoporphyrin]
[1]; HO-1 inhibitor, 20 μM, 24 h before and 24 h during CP
  sensitivity to chemotherapy (CP): sensitized cancer cells to chemotherapy

## CCN(CC)CCCC(C)Nc1ccnc2cc(Cl)ccc12 (stereo not shown) [chloroquine]
[1]; 5 μM, 48 hours, glucose restriction in low serum
  cell death on inhibition of autophagy during STS: further increased cell death

## Bevacizumab: Bevacizumab added into the DTX treatment
Prostate adenocarcinoma; case 3, added to weekly DTX treatment
  PSA: dropped significantly

## IGF-I: rhIGF-I, growth factor added during glucose restriction
Melanoma (B16) cells
  effect on STS-dependent sensitization to DXR: reverses the sensitization
[1]; rhIGF-I, glucose 0.5 vs 2.0 g/L, 1% FBS, DXR 16 μM
  effect on STS-dependent sensitization to DXR: reverses the sensitization

## hemin
[1]; HO-1 inducer, 10 μM, 24 h before and 24 h during CP
  fasting-dependent sensitization to chemotherapy (CP): partially reversed
